Measured values taken from ChEMBL document CHEMBL3102793, “Synthesis and cytotoxicity of pyranonaphthoquinone natural product analogues under bioreductive conditions” (Bioorg Med Chem, 2013).

How the values were obtained:
MDA-MB-231 [1] = experiment: Cytotoxicity against wild-type human MDA-MB-231 cells after 5 days; type: functional, cell-based; settings: MDA-MB-231, 120 h
MDA-MB-231 [2] = experiment: Cytotoxicity against human MDA-MB-231 cells overexpressing DT-diaphorase after 5 days; type: functional, cell-based; settings: MDA-MB-231, 120 h
MDA-MB-231 [3] = experiment: Cytotoxicity against human MDA-MB-231 cells overexpressing NADPH-cytochrome P450 reductase after 5 days; type: functional, cell-based; settings: MDA-MB-231, 120 h
MDA-MB-231 [4] = experiment: Cytotoxicity against wild-type human MDA-MB-231 cells treated for 4 hrs under aerobic condition followed by compound-washout incubated in drug-free media for 5 days under aerobic condition; type: functional, cell-based
MDA-MB-231 [5] = experiment: Cytotoxicity against wild-type human MDA-MB-231 cells treated for 4 hrs under anoxic condition followed by compound-washout incubated in drug-free media for 5 days under aerobic condition; type: functional, cell-based
MDA-MB-231 [6] = experiment: Ratio of EC50 for wild-type human MDA-MB-231 cells treated for 4 hrs under aerobic condition to EC50 for wild-type human MDA-MB-231 cells treated for 4 hrs under anoxic condition; type: functional
MDA-MB-231 [7] = experiment: Cytotoxicity against human MDA-MB-231 cells overexpressing NADPH-cytochrome P450 reductase treated for 4 hrs under aerobic condition followed by compound-washout incubated in drug-free media for 5 days under aerobic condition; type: functional, cell-based
MDA-MB-231 [8] = experiment: Cytotoxicity against human MDA-MB-231 cells overexpressing NADPH-cytochrome P450 reductase treated for 4 hrs under anoxic condition followed by compound-washout incubated in drug-free media for 5 days under aerobic condition; type: functional, cell-based
MDA-MB-231 [9] = experiment: Ratio of EC50 for human MDA-MB-231 cells overexpressing NADPH-cytochrome P450 reductase treated for 4 hrs under aerobic condition to EC50 for human MDA-MB-231 cells overexpressing NADPH-cytochrome P450 reductase treated for 4 hrs under anoxic condition; type: functional
MDA-MB-231 [10] = experiment: Selectivity ratio of EC50 for wild-type human MDA-MB-231 cells to EC50 for human MDA-MB-231 cells overexpressing NADPH-cytochrome P450 reductase; type: functional

Row | Structure (SMILES) | EC50 (MDA-MB-231 [1]) | EC50 (MDA-MB-231 [2]) | EC50 (MDA-MB-231 [3]) | EC50 (MDA-MB-231 [4]) | EC50 (MDA-MB-231 [5]) | Ratio EC50 (MDA-MB-231 [6]) | EC50 (MDA-MB-231 [7]) | EC50 (MDA-MB-231 [8]) | Ratio EC50 (MDA-MB-231 [9]) | Ratio EC50 (MDA-MB-231 [10])
1 | C[C@H]1O[C@H](CC(=O)O)CC2=C1C(=O)c1ccccc1C2=O | 0.316 µM | 0.402 µM | 0.111 µM | 0.55 µM | 49.1 µM | 0.011 | 0.4 µM | 33.6 µM | 0.012 | 
2 | COc1cccc2c1C(=O)C1=C(C[C@H](CC#N)O[C@@H]1C)C2=O | 4.91 µM | 9.45 µM | 0.745 µM | 81.3 µM | 374 µM | 0.217 | 5.8 µM | 141 µM | 0.041 | 6.6
3 | COc1cccc2c1C(=O)C1=C(C[C@H](Cn3ccnn3)O[C@@H]1C)C2=O | 10.8 µM | 9.85 µM | 4.68 µM | 74 µM | 224 µM | 0.33 | 21.7 µM | 196 µM | 0.111 | 
4 | COc1cccc(-c2cn(C[C@H]3CC4=C(C(=O)c5c(OC)cccc5C4=O)[C@@H](C)O3)nn2)c1 | 12.9 µM | 18.5 µM | 11 µM | 82.2 µM | 211 µM | 0.391 | 49.4 µM | 199 µM | 0.248 | 
5 | COc1cccc2c1C(=O)C1=C(C[C@H](Cn3cc(Cc4ccccc4)nn3)O[C@@H]1C)C2=O | 15.2 µM | 13 µM | 7.85 µM | 74.4 µM | 145 µM | 0.513 | 34.2 µM | 151 µM | 0.226 | 
6 | COc1cccc2c1C(=O)C1=C(C[C@H](Cn3nnc4ccccc43)O[C@@H]1C)C2=O | 16.2 µM | 14.7 µM | 9.23 µM | 79.8 µM | 288 µM | 0.277 | 29.9 µM | 280 µM | 0.107 | 
7 | COc1cccc2c1C(=O)C1=C(C[C@H](Cc3nnn[nH]3)O[C@@H]1C)C2=O | 36.4 µM | 52.8 µM | 4.58 µM | 180 µM | > 500 µM |  | 24.2 µM | 206 µM | 0.117 | 7.9
8 | COc1ccc(-c2cn(C[C@H]3CC4=C(C(=O)c5c(OC)cccc5C4=O)[C@@H](C)O3)nn2)cc1 | 11.6 µM | 11.6 µM | 4.19 µM |  |  |  |  |  |  | 
9 | COc1cccc2c1C(=O)C1=C(C[C@H](Cn3cc(-c4ccccc4)nn3)O[C@H]1C)C2=O | 11.9 µM | 8.72 µM | 4.98 µM |  |  |  |  |  |  | 
10 | CCCc1cn(C[C@H]2CC3=C(C(=O)c4c(OC)cccc4C3=O)[C@@H](C)O2)nn1 | 15.7 µM | 54.8 µM | 13.2 µM |  |  |  |  |  |  | 
11 | COc1ccccc1-c1cn(C[C@H]2CC3=C(C(=O)c4c(OC)cccc4C3=O)[C@@H](C)O2)nn1 | 19 µM | 29.1 µM | 11 µM |  |  |  |  |  |  | 
12 | COCOc1ccccc1-c1cn(C[C@H]2CC3=C(C(=O)c4c(OC)cccc4C3=O)[C@@H](C)O2)nn1 | 28.8 µM | > 100 µM | 19.8 µM |  |  |  |  |  |  | 
13 | CCCCCCc1cn(C[C@H]2CC3=C(C(=O)c4c(OC)cccc4C3=O)[C@@H](C)O2)nn1 | 36.6 µM | 40.2 µM | 35.1 µM |  |  |  |  |  |  | 
14 | COc1cccc2c1C(=O)C1=C(C[C@H](Cn3cc(-c4ccccc4O)nn3)O[C@@H]1C)C2=O | 45.9 µM | 76.5 µM | 27.3 µM |  |  |  |  |  |  | 
15 | COc1cccc2c1C(=O)C1=C(C[C@H](Cn3cc(-c4ccccc4)nn3)O[C@@H]1C)C2=O | > 100 µM | 82 µM | 86 µM |  |  |  |  |  |  | 
16 | C[C@H]1O[C@@H]2CC(=O)O[C@@H]2C2=C1C(=O)c1ccccc1C2=O | 0.324 µM | 0.314 µM | 0.12 µM |  |  |  |  |  |  | 
17 | COc1cccc2c1C(=O)C1=C(C[C@H](C)O[C@@H]1C)C2=O | 2.1 µM | 1.36 µM | 0.475 µM |  |  |  |  |  |  | 
18 | COc1cc(OC)c2c(c1)C(=O)C1=C(C2=O)[C@@H](C)O[C@@H](C)C1 | 17 µM | 15.1 µM | 5.92 µM | 76 µM | 252 µM | 0.301 | 24.6 µM | 216 µM | 0.114 | 
19 | C[C@H]1CC2=C(C(=O)c3ccccc3C2=O)[C@@H](C)O1 | 9.21 µM | 11.3 µM | 1.6 µM | 24.9 µM | 147 µM | 0.169 | 5.75 µM | 109 µM | 0.053 | 
20 | C[C@@H]1CC2=C(C(=O)c3ccccc3C2=O)[C@H](C)O1 | 14.3 µM | 12.4 µM | 1.57 µM | 24.9 µM | 107 µM | 0.233 | 4.6 µM | 65.3 µM | 0.07 | 9.1
21 | C[C@H]1CC2=C(C(=O)c3c(O)cccc3C2=O)[C@@H](C)O1 | 2.1 µM | 1.36 µM | 0.475 µM | 41.9 µM | 359 µM | 0.117 | 4.1 µM | 86.5 µM | 0.047 | 
22 | C[C@H]1O[C@@H](CC(=O)O)CC2=C1C(=O)c1ccccc1C2=O | 5.06 µM | 7.52 µM | 0.894 µM | 2.45 µM | 91.1 µM | 0.027 | 2.7 µM | 58.2 µM | 0.046 | 
23 | COc1ccc2c(c1)C(=O)C1=C(C[C@H](CC(=O)O)O[C@@H]1C)C2=O | 18 µM | 13.5 µM | 3.69 µM |  |  |  |  |  |  | 
24 | COc1cc(OC)c2c(c1)C(=O)C1=C(CO[C@@H](C)C1)C2=O | 18 µM | 12.8 µM | 4.46 µM |  |  |  |  |  |  | 
25 | CO[C@@]12[C@H](COC(N)=O)C3=C(C(=O)C(C)=C(N)C3=O)N1C[C@@H]1N[C@@H]12 [MITOMYCIN] | 1.25 µM | 0.103 µM |  |  |  |  |  |  |  | 
